Test system: Primary osteoblast cells
Experiment: Assay of alkaline phosphatase activity in cultured osteoblasts
Assay type: cell-based, rat
Procedure: Primary osteoblast cultures: Primary osteoblast cells were prepared from calvaria of 18-day-old fetal Sprague-Dawley (SD) rats according to the following method: Pregnant rats were put in anesthesia using intraperitoneal injection of trichloroacetaldehyde (200 mg/kg). The calvaria of the fetal rats were then dissected with aseptic technique. Soft tissues were removed under a dissecting microscope. The calvaria were divided into small pieces and then treated with 0.1% collagenase (Sigma Chemical, St. Louis, Mo.) solution for 10 minutes at 37° C. The cells released from the calvariae by two 20-minute sequential collagenase digestions were pooled and filtered through 70 μm nylon filters (Falcon, BD BioSciences, San Jose, Calif.). The cells were then grown on plastic cell culture dishes in 95:5 air-CO2 with Dulbecco's modified Eagle's medium (DMEM) (Gibco, Grand Island, N.Y.) which was supplemented with 20 mM HEPES and 10% heat-inactivated FCS, 2 mM-glutamine, penicillin (100 U/ml) and streptomycin (100 μg/ml) (pH adjusted to 7.6). The cell medium was changed twice a week. Osteoblasts were confirmed by morphology and expression of alkaline phosphatase (ALP). To examine the maturation of osteoblasts, cells were cultured for up to 14 days in a growth medium containing ascorbic acid (50 μg/ml) (Sigma Chemical, St. Louis, Mo.) and β-glycerophosphate (10 mM) (Sigma Chemical, St. Louis, Mo.) and the medium was changed every 3 day. Assay of alkalinephosphatase activity: Cells cultured in 6-well plates in the presence or absence of Indazole 1 were harvested in 1 ml of 0.2% Nonidet P-40 and cell suspension was disrupted by sonication. After centrifugation at 1500 g for 5 min, ALP activity in the supernatant was measured by the method of Lowry et al (1954) J Biol Chem 207:19–37.

SMILES: OCc1ccc(-c2nn(Cc3ccccc3)c3ccccc23)o1 [Indazole 1, 1-benzyl-3-(5′-hydroxymethyl-2′-furyl)-indazole]
- concentration dependence of the increase of ALP activity: concentration-dependent
- ALP activity (ALP staining) (10 μM for 2 weeks): significantly increased

Source: US7160916B2, “Method of increasing bone density or treating osteoporosis” (Yung Shin Pharmaceutical Ind. Co., Ltd., priority 2003, dated 2007)
